According to patent publication US4639468A, “Derivatives of glycinamide, their preparation and their use” (priority 1979, dated 1987):
Where two headings read alike, the source gives them in different places.

Experiments:
[1] = system: mice; test: in vivo; conditions: oral, mice; Table II
[2] = system: convulsions induced by bicuculline; test: in vivo; conditions: for bicuculline (score: sum of animals protected by dosages of 10 and 100 mgr/kg): oral, 5 mice each, 3 hours before bicuculline 0.6 mgr/kg i.v., tonic convulsions; for ED50: Mus musculus, iv, 3 h, read-out: DE50
Experimental: (§1) The anticonvulsive effect was examined for tonic convulsions induced by bicuculline. The compounds of the invention were administrated orally at dosages of 10 and 100 mgr/kg, each to 5 mice, 3 hours before intravenous injection of bicuculline at the dosage of 0.6 mgr/kg. The number of mice protected against tonic convulsions and the number of dead mice were noted.
(§2) Amongst the substances according to the invention, 2-n-pentylaminoacetamideand its hydrochloride were more particularly studied. […] The hydrochloride was also administered intravenously. […] Table III also gives the therapeutical index (LD50/ED50).

[3] = in vivo; conditions: mouse, in vivo, po, read-out: DL50 (the source's name)
[4] = system: decarboxylase glutamate (GAD); test: activity of decarboxylase glutamate (GAD) in homogenizates of rat brain; type: biochemical; conditions: 10^-4 M
Experimental: The substances of the invention have the property of inhibiting convulsions induced by bicculline in mouse. […] As a matter of fact, bucuculline is a specific antoganist of GABA. Besides, the effect of the products on the activity of the GABA synthesis enzyme, decarboxylase glutamate (GAD), was studied. The activity of the GAD was determined in homogenizates of rat brain according to the method described by L. Parker (Methods in Enzymology, Ed. S. Fleischer, 1974, Vol. XXXII, part V., p. 779). […] In general, the products of the invention […] the activity of the […] (GABA-T), enzyme of GABA catabolism, which results in an increase of the GABA levels at the level of GABA-ergic neurons.

[5] = system: mortality caused by KCN; test: protection of mice against mortality caused by KCN; type: in vivo, mouse
[6] = system: platelet agglutination; test: inhibition of platelet agglutination in human plasma (turbidimetric method of Born and Cross, Trombofax); type: cell-based; conditions: human plasma rich in platelets, preincubated 3 minutes before Trombofax
Experimental: The measure of the inhibition of platelet agglutination is made according to the turbidimetric method of G. V. R. Born and M. J. Cross (J. Physiol. 168, 178, […]). The plasma rich in platelets is preincubated for 3 minutes before introduction of the inductor agent, Trombofax. The inhibion of the maximum amplitude of agglutination is measured by means of Upchurch agglutometer. In this test, compounds 1, 11, 14 and 18 have shown as being active.

[7] = in vivo; conditions: mouse, in vivo, po
Experimental: as §1, §2

[8] = system: convulsions induced by strychnine; test: convulsions induced by strychnine; conditions: in vivo

CCCCCCNCC(N)=O [Compound 2, 2-n-hexylaminoacetamide]
DL50 [1]: 780 mg/kg
bicuculline (score: sum of animals protected by dosages of 10 and 100 mgr/kg) [2]: 4

NC(=O)CNCCCCCCO [Compound 4]
LD50 ([3]; mice, Table II): > 3000 mg/kg
bicuculline (score: sum of animals protected by dosages of 10 and 100 mgr/kg) [2]: 4

NC(=O)CN(CCCCCCO)CC(N)=O [Compound 5]
LD50 ([3]; mice, Table II): > 3000 mg/kg
bicuculline (score: sum of animals protected by dosages of 10 and 100 mgr/kg) [2]: 2

COC(=O)CCCCCN(CC(N)=O)CC(N)=O [Compound 6, Methyl 6-(dicarboxamidomethyl)aminohexanoate]
LD50 ([3]; mice, Table II): > 3000 mg/kg
bicuculline (score: sum of animals protected by dosages of 10 and 100 mgr/kg) [2]: 6

NC(=O)CNCCCCO [Compound 7]
bicuculline (score: sum of animals protected by dosages of 10 and 100 mgr/kg) [2]: 2

COC(=O)CCCCCNCC(N)=O [Compound 8]
effect on the activity of GAD [4]: particularly remarkable
LD50 ([3]; mice, Table II): > 3000 mg/kg
bicuculline (score: sum of animals protected by dosages of 10 and 100 mgr/kg) [2]: 1

CCCCCCCNCC(N)=O [Compound 9, 2-n-Heptylaminoacetamide]
LD50 ([3]; mice, Table II): 1420 mg/kg
bicuculline (score: sum of animals protected by dosages of 10 and 100 mgr/kg) [2]: 5
protection against mortality caused by KCN [5]: protect mice against mortality caused by KCN

CCCCCCCCCCCCCCCCCCNCC(N)=O [Compound 10, 2-n-octadecylaminoacetamide]
LD50 ([3]; mice, Table II): > 3000 mg/kg
bicuculline (score: sum of animals protected by dosages of 10 and 100 mgr/kg) [2]: 1

CCCCCCCCCNCC(N)=O [Compound 11]
inhibition of platelet agglutination [6]: active
LD50 ([3]; mice, Table II): 1950 mg/kg
bicuculline (score: sum of animals protected by dosages of 10 and 100 mgr/kg) [2]: 2

CCCCCCNCC(N)=O [Compound 12, 2-n-hexylaminoacetamide]
DL50 [1]: 2800 mg/kg
bicuculline (score: sum of animals protected by dosages of 10 and 100 mgr/kg) [2]: 5

CCCCCCCCCCCCNCC(N)=O [Compound 13, 2-n-docecylaminoacetamide]
LD50 ([3]; mice, Table II): > 3000 mg/kg
bicuculline (score: sum of animals protected by dosages of 10 and 100 mgr/kg) [2]: 2

CCCCCCCCCCNCC(N)=O [Compound 14, 2-n-decylaminoacetamide]
inhibition of platelet agglutination [6]: active
LD50 ([3]; mice, Table II): 2600 mg/kg
bicuculline (score: sum of animals protected by dosages of 10 and 100 mgr/kg) [2]: 6

CCOC(=O)CCCCCCCNCC(N)=O [Compound 16]
LD50 ([3]; mice, Table II): > 1000 mg/kg
bicuculline (score: sum of animals protected by dosages of 10 and 100 mgr/kg) [2]: 5

CCCCCCCCC=CCCCCCCCCNCC(N)=O [Compound 17, 2-n-octadecen-9-ylaminoacetamide]
LD50 ([3]; mice, Table II): > 3000 mg/kg
bicuculline (score: sum of animals protected by dosages of 10 and 100 mgr/kg) [2]: 2

CCCCCCCC(C)NCC(N)=O (stereo not drawn) [Compound 18]
inhibition of platelet agglutination [6]: active
LD50 ([3]; mice, Table II): > 1000 mg/kg
bicuculline (score: sum of animals protected by dosages of 10 and 100 mgr/kg) [2]: 2

CCCCCNCC(N)=O [Compound 20]
DL50 [1]: > 1000 mg/kg
bicuculline (score: sum of animals protected by dosages of 10 and 100 mgr/kg) [2]: 1

COC(=O)CCCCCCCNC(C(N)=O)C(N)=O [Compound 23, Methyl 8-(dicarboxamidomethyl)aminooctanoate]
DL50 [1]: > 1000 mg/kg
bicuculline (score: sum of animals protected by dosages of 10 and 100 mgr/kg) [2]: 7

CCCCCCN(CC(N)=O)C(=O)c1ccccc1 [Compound 25]
LD50 ([3]; mice, Table II): 3660 mg/kg
bicuculline (score: sum of animals protected by dosages of 10 and 100 mgr/kg) [2]: 5

CCCCCNCC(N)=O [Compound 26]
DL50 [1]: 1950 mg/kg
bicuculline (score: sum of animals protected by dosages of 10 and 100 mgr/kg) [2]: 3

CCCCCCNCC(N)=O [Compound 27]
DL50 [1]: 860 mg/kg
bicuculline (score: sum of animals protected by dosages of 10 and 100 mgr/kg) [2]: 4

CCCCCCN(CC)CC(N)=O [Compound 28]
LD50 ([3]; mice, Table II): 435 mg/kg
bicuculline (score: sum of animals protected by dosages of 10 and 100 mgr/kg) [2]: 5

CCCCCCN(C)CC(N)=O [Compound 30, 2-(N-n-hexyl-N-methylamino)acetamide]
LD50 ([3]; mice, Table II): 570 mg/kg
bicuculline (score: sum of animals protected by dosages of 10 and 100 mgr/kg) [2]: 4

CCCCCCNCC(N)=O [Compound 31]
DL50 [1]: 1650 mg/kg
bicuculline (score: sum of animals protected by dosages of 10 and 100 mgr/kg) [2]: 6

CCCCCNCC(N)=O [Compound 34]
DL50 [1]: > 3000 mg/kg
bicuculline (score: sum of animals protected by dosages of 10 and 100 mgr/kg) [2]: 5

CCCCCNCC(N)=O [Compound 35]
DL50 [1]: > 3000 mg/kg
bicuculline (score: sum of animals protected by dosages of 10 and 100 mgr/kg) [2]: 3

NC(=O)CNCCc1ccccc1 [Compound 36, 2-(2-phenylethyl)aminocacetamide]
bicuculline (score: sum of animals protected by dosages of 10 and 100 mgr/kg) [2]: 7

CCCCCCNCC(=O)NCCCCCC [Compound 37, N-n-hexyl-2-(n-hexylamino)acetamide]
bicuculline (score: sum of animals protected by dosages of 10 and 100 mgr/kg) [2]: 3

CCCCCCNCC(=O)NC [Compound 38]
bicuculline (score: sum of animals protected by dosages of 10 and 100 mgr/kg) [2]: 3

C=CCCCCCNCC(N)=O [Compound 40]
bicuculline (score: sum of animals protected by dosages of 10 and 100 mgr/kg) [2]: 4

CCCCCNC(C)C(N)=O (stereo not drawn) [Compound 41]
bicuculline (score: sum of animals protected by dosages of 10 and 100 mgr/kg) [2]: 4

C#CC(C)(C)NCC(N)=O [Compound 42, 2-(1,1-dimethylpropyn-2-yl)aminoacetamide]
bicuculline (score: sum of animals protected by dosages of 10 and 100 mgr/kg) [2]: 6

CCCCCCN(CC(N)=O)C(=O)C(C)(C)C [Compound 45]
bicuculline (score: sum of animals protected by dosages of 10 and 100 mgr/kg) [2]: 3

CCCCCNC(C(N)=O)c1ccccc1 (stereo not drawn) [Compound 46]
bicuculline (score: sum of animals protected by dosages of 10 and 100 mgr/kg) [2]: 5

CCCCCCN(CC(N)=O)C(=O)OCC [Compound 47, Ethyl N-n-hexyl-N-carboxamidomethylcarbamate]
bicuculline (score: sum of animals protected by dosages of 10 and 100 mgr/kg) [2]: 8

CCCCCNC(CC)C(N)=O (stereo not drawn) [Compound 48, 2-(n-pentylamino)-butyramide]
bicuculline (score: sum of animals protected by dosages of 10 and 100 mgr/kg) [2]: 6

NC(=O)CNCCCc1ccccc1 [Compound 49, 2-(3-phenylpropyl)aminoacetamide]
bicuculline (score: sum of animals protected by dosages of 10 and 100 mgr/kg) [2]: 7

C=CCCCCCCNCC(N)=O [Compound 50]
bicuculline (score: sum of animals protected by dosages of 10 and 100 mgr/kg) [2]: 6

NC(=O)CNCCCCCCCC(=O)O [Compound 51, 8-carboxamidomethylaminooctanoic acid]
bicuculline (score: sum of animals protected by dosages of 10 and 100 mgr/kg) [2]: 6

NC(=O)CNCCCCc1ccccc1 [Compound 52, 2-(4-phenylbutyl)aminoacetamide]
bicuculline (score: sum of animals protected by dosages of 10 and 100 mgr/kg) [2]: 7

CCCCCCNCC(=O)Nc1cccc(Cl)c1 [Compound 53]
bicuculline (score: sum of animals protected by dosages of 10 and 100 mgr/kg) [2]: 4

CCCCCCNCC(=O)N(C)C [Compound 54]
bicuculline (score: sum of animals protected by dosages of 10 and 100 mgr/kg) [2]: 4

CCCCNC(=O)C(C(C)C)N(CCCCOc1ccccc1)C(C)=O (stereo not drawn) [Compound 55, N-n-butyl-2-[N-acetyl-N-(4-phenoxybutyl)]aminoisovaleramide]
bicuculline (score: sum of animals protected by dosages of 10 and 100 mgr/kg) [2]: 6

NC(=O)CNCCC(c1ccccc1)c1ccccc1 [Compound 56]
bicuculline (score: sum of animals protected by dosages of 10 and 100 mgr/kg) [2]: 4

NC(=O)CNCCOc1ccccc1 [Compound 57]
bicuculline (score: sum of animals protected by dosages of 10 and 100 mgr/kg) [2]: 5

O=C1NC(=O)C(c2ccccc2)(c2ccccc2)N1 [Na Diphenylhydantoin, reference compound]
ED50 [2]: 2.63 mg/kg

CCC1(c2ccccc2)C(=O)NC(=O)NC1=O [Na Phenobarbital, reference compound]
LD50 ([3]; Table III): 185 mg/kg
ED50 [2]: 2.11 mg/kg
selectivity ratio [7]: 88

CCCC(CCC)C(=O)O [Na Valproate, reference compound]
LD50 ([3]; Table III): 1250 mg/kg
ED50 [2]: 89.1 mg/kg
selectivity ratio [7]: 14
activity against convulsions induced by strychnine [8]: inactive
